pEC50: −log10 of the molar value.
Tests used:
hLPA2 = target: T1, hLPA2 (Homo sapiens, UniProt Q9HBW0); experiment: TGFα-shedding assay, LPA2; type: cell-based; details: 293A cells, AP-TGFα release; for pEC50: 1 h; for Emax: read-out: Emax ± SEM hLPA2 (converted)
T1 construct: expressed in transfected cells; host or cells: 293A cells
Procedure: (§1) 293A cells expressing LPA receptors were stimulated with the indicated concentration of LPA, 2carbaLPA, and cPA analogues. Receptor-specific alkaline phosphatase-tagged transforming growth factor-α release was calculated by subtracting the responses in the empty vector-transfected cells from those in the receptor-expressing cells. Data are represented as standard error of the mean of three independent replicates.
(§2) 293A cells (Life Technologies, Tokyo, Japan) were cultured in DMEM (Nissui Pharmaceutical, Tokyo, Japan) supplemented with 10% foetal calf serum (Gibco, Waltham, MA, USA) in an incubator at 37 °C and 5% CO2. This assay was conducted according to a modified version of a method described previously. […] The cells were co-transfected with vectors-expressing human LPA1–6, alkaline phosphatase-tagged TGFα (AP-TGFα). As negative controls, cells transfected with an empty vector instead of the receptor-expressing vector were used. After 24 h, the cells were resuspended in Hank’s balanced salt solution (HBSS), seeded in 96-well plates, and stimulated with cPA analogues administered at tenfold concentration of the final concentration. The cPA analogues were diluted with HBSS, 0.01% protease and fatty acid-free BSA (SERVA Electrophoresis GmbH, Heidelberg, Germany). Cells for LPA4, LPA5, and LPA6 analysis were treated with Ki16425 (final concentration: 10 μM), 5 min before treatment with the cPA analogues. After incubation for 1 h at 37 °C, 80 µL of the supernatant was transferred to fresh 96-well plates. An equal volume of 1 mM p-NPP solution [120 mM Tris–HCl (pH 9.5), 40 mM NaCl, and 10 mM MgCl2] was added to both the supernatant and the cells. Alkaline phosphatase activity was calculated by measuring absorbance at 405 nm using the Cytation 3 plate reader (BioTek, Winooski, VT, USA).

hLPA3 = target: T2, hLPA3 (Homo sapiens, UniProt Q9UBY5); experiment: TGFα-shedding assay, LPA3; type: cell-based; details: 293A cells, AP-TGFα release; for pEC50: 1 h; for Emax: read-out: Emax ± SEM hLPA3 (converted)
T2 construct: expressed in transfected cells; host or cells: 293A cells
T2 sequence (Q9UBY5 1-353): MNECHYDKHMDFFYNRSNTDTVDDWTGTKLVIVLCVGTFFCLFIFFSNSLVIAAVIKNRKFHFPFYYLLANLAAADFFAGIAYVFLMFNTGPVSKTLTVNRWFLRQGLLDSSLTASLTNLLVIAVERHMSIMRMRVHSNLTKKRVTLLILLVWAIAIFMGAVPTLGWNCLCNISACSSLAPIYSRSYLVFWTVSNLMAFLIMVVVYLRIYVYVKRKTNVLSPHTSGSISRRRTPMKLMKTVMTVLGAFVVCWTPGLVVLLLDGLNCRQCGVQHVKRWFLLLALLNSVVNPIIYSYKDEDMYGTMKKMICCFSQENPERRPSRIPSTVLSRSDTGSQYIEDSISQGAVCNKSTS
Procedure: as §1, §2

hLPA6 = target: T3, hLPA6 (Homo sapiens, UniProt P43657); experiment: TGFα-shedding assay, LPA6; type: cell-based; details: 293A cells, AP-TGFα release; for pEC50: 1 h; for Emax: read-out: Emax ± SEM hLPA6 (converted)
T3 construct: expressed in transfected cells; host or cells: 293A cells
T3 sequence (P43657 1-344): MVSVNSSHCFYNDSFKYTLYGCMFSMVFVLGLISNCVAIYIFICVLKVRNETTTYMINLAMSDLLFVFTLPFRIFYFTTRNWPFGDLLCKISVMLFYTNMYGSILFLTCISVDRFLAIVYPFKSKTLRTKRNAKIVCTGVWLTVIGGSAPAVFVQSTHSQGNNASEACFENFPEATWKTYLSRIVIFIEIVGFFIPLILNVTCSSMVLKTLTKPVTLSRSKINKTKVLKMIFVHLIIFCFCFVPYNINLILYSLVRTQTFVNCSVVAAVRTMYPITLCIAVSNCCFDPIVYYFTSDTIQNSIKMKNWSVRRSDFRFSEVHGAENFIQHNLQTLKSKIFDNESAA
Procedure: as §1, §2

human recombinant ATX = target: T4, human recombinant ATX (Homo sapiens, UniProt Q13822); experiment: Choline oxidase assay of LPC cleavage by ATX; type: biochemical; details: LPC 16:0 300 µM, ATX 50 nM, 2 h, 37 °C, various concentrations
T4 construct: purchased Cayman Chemical
Procedure: (a) Concentration–response curves for the inhibition of ATX activity as measured by the […] of the substrate lysophosphatidylcholine (LPC) using choline oxidase and peroxidase. LPC 16:0 (final concentration: 300 µM, above its critical micellar concentration [CMC]), human recombinant ATX (final concentration: 50 nM), and various concentrations of cPA analogues were used for incubation with 4-aminoantipyrine, TOOS (final concentration: 0.05% (w/v) each), choline oxidase and peroxidase (final concentration: 10 U/mL each) in the ATX assay buffer. […] Inhibition was calculated as percentage (%) of reduction in absorbance compared with absorbance in the vehicle control (without cPA analogues) after subtraction of the value measured at time 0. Data are represented as mean ± standard deviation (n = 3–4 samples). (b) Inhibition of ATX activity measured by lysophosphatidic acid (LPA 16:0) production via liquid chromatography coupled to triple quadrupole mass spectrometry (LC-QqQ). The substrate LPC 16:0 (final concentration: 300 µM) was incubated with human recombinant ATX (final concentration: 50 nM) and cPA analogues (final concentration: 10 μM) for 2 h at 37 °C. The ATX product, LPA 16:0, was quantified by LC-QqQ. Inhibition was calculated as percentage (%) of reduction in LPA production compared with LPA production in the vehicle control (without cPA analogues). Data are represented as mean ± standard deviation (n = 5–6 samples).
Human recombinant ATX (50 nM final concentration, 5 µL in ATX assay buffer: 50 mM Tris, 140 mM NaCl, 5 mM KCl, 1 mM CaCl2, 1 mM MgCl2, pH 8.0) and cPA analogues (5 µL each in ATX assay buffer) at various concentrations were added in a 96-well plate and mixed with 90 µL of LPC 16:0 (final concentration: 300 µM) as substrate, 4-aminoantipyrine, TOOS (final concentration: 0.05% w/v each), choline oxidase and peroxidase (final concentration: 10 units/mL each) in ATX assay buffer. […] Inhibition was calculated as a percentage (%) of reduction in absorbance compared to absorbance in the vehicle control (without cPA analogues) after subtraction of the value measured at time 0.

LPA3 = details: Ca2+ mobilization, RH7777 and CHO cells, less than 2 min incubation ref 17; cited from earlier work

T1 sequence (Q9HBW0 whole entry): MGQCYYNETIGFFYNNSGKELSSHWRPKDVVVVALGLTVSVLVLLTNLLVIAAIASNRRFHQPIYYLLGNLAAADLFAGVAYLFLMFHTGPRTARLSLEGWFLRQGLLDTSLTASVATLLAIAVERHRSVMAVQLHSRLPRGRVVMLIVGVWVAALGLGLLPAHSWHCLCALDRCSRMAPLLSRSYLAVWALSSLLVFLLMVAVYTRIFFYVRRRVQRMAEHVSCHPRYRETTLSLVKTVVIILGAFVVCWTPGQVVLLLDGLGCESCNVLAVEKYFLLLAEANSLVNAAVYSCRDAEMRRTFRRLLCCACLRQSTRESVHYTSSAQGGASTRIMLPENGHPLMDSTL

SMILES | pEC50 (hLPA2) | Emax (hLPA2) | pEC50 (hLPA3) | Emax (hLPA3) | pEC50 (hLPA6; with Ki16425 10 μM) | Emax (hLPA6) | Inhibition of lysoPLD activity of ATX (choline oxidase assay) (human recombinant ATX) | pEC50 (hLPA2; bound) | pEC50 (hLPA6; bound) | Activity relative to LPA (times weaker), LPA3 (LPA3)
CCCCCCCC/C=C\CCCCCCCC(=O)OCC(CO)CP(=O)(O)O (stereo not shown) [2carbaLPA 18:1, 2-carba-lysophosphatidic acid] | 6.59 | 35.8% | 7.94 | 42.7% | 7.04 | 29.3% | inhibited the lysoPLD activity of ATX in a dose-dependent manner | – | – | –
CCCCCCCC/C=C\CCCCCCCC(=O)OCC1COP(=O)(O)C1 (stereo not shown) [2ccPA 18:1, 2-carba-cyclic phosphatidic acid] | – | – | 6.54 | 30.8% | – | – | inhibited the lysoPLD activity of ATX in a dose-dependent manner | < 5.52 | < 5.52 | –
CCCCCCCC/C=C\CCCCCCCC(=O)OC[C@@H](O)CCP(=O)(O)O [3carba LPA 18:1, 3-carba-lysophosphatidic acid] | 7.55 | 30.7% | 8.25 | 44.3% | 6.88 | 27.1% | inhibited the lysoPLD activity of ATX in a dose-dependent manner | – | – | more than 10 times
CCCCCCCC/C=C\CCCCCCCC(=O)OC[C@@H]1CCP(=O)(O)O1 [3ccPA 18:1, 3-carba-cyclic phosphatidic acid] | 5.59 | 53.2% | – | 37.4% | – | – | lower inhibitory activity than the other analogues, except for LPA and cPA | – | < 5.52 | –
CCCCCCCC/C=C\CCCCCCCC(=O)OC[C@@H]1COP(=O)(O)O1 [cPA 18:1, 1-Oleoyl-cPA] | 5.97 | 35.9% | 6.36 | 16.8% | – | – | significantly lower inhibitory activity | – | < 5.52 | –

— publication PMC8405639, “2-Carba-lysophosphatidic acid is a novel β-lysophosphatidic acid analogue with high potential for lysophosphatidic acid receptor activation and autotaxin inhibition” (Scientific Reports, 2021)
